Seven compounds from US20210078958A1, “QUINAZOLINE DERIVATIVE AND USE THEREOF” (MEDSHINE DISCOVERY INC., priority 2017, published 2021) can be followed below.

Series [1] deals with subcutaneous xenograft tumor of human gastric cancer NCI-N87 cells. Nature of the series: Assay Example 5: in vivo pharmacodynamics, NCI-N87 xenograft. Details: species or system BALB/c nude mouse. The following applies: 0.5 mg/kg. The method, then:
Purpose of the assay: to evaluate the in vivo efficacy of test compounds disclosed herein on subcutaneous xenograft tumor of human gastric cancer NCI-N87 cells in a BALB/c nude mouse model.
Animals of the assay: female BALB/c nude mice, 6-8 weeks old, weighing 18-22 grams; supplier: shanghai sippr bk laboratory animals Ltd.
Human gastric cancer NCI-N87 cells were cultured in monolayer in vitro. The culture conditions were RPMI-1640 medium plus 10% fetal bovine serum, 100 U/mL penicillin, 100 μg/mL streptomycin, 37° C., 5% CO2. The passaging was performed by conventional digestion with trypsin-EDTA twice a week. When the cell saturation was 80%-90%, the cells were collected, counted and inoculated.
0.2 mL (10×10^6) of NCI-N87 cells (PBS+Matrigel, 1:1) were inoculated subcutaneously on the right back of each mouse. When the average tumor volume reached 156 mm^3, administration to each group was started.
The test compounds were formulated into a 0.05 mg/mL clear solution in the solvents of 10% NMP (N-methylpyrrolidone)+10% ethylene glycol stearate+80% water.
The assay index is to investigate whether tumor growth is inhibited, delayed or cured. Tumor diameter was measured twice a week with a vernier caliper. The calculation formula of tumor volume is: V=0.5a×b^2, wherein a and b represent the long and short diameters of tumor, respectively.
The antitumor efficacy of the compounds were evaluated by TGI (%) or tumor proliferation rate T/C (%). TGI (%) reflects the tumor growth inhibition rate. TGI (%) is calculated as follows: TGI (%)=[1−(average tumor volume at the end of administration for a certain treatment group−average tumor volume at the beginning of administration for this treatment group)/(average tumor volume at the end of treatment for a solvent control group−average tumor volume at the beginning of administration for this solvent control group)]×100%.
Tumor proliferation rate T/C (%): the calculation formula is as follows: T/C (%)=average tumor volume at the end of administration for a certain treatment group/average tumor volume at the end of treatment for the solvent control group×100%.
Statistical analysis included the mean and standard error (SEM) of tumor volume at each time point in each group (See Table 5-1 for specific data). […] The comparison between two groups was analyzed by T-test, and the comparison among three or more groups was analyzed by one-way ANOVA. […] All data analysis was carried out with SPSS 17.0. p<0.05 was considered a significant difference.

Series [2] in a line: Assay Example 7: pharmacokinetics in mice. The series is classed as in vivo. The following applies: mouse, female BALB/c mice, plasma, dose not given. The procedure:
Purpose of the assay: this assay aims to investigate in vivo plasma pharmacokinetics of the example compounds disclosed herein and the reference compound in female BALB/c mice after the single intravenous injection and intragastric administration thereof.
Animals of the assay: female BALB/c nude mice, 7-9 weeks old, weighted 17-23 grams; supplier: shanghai sippr bk laboratory animals Ltd.
Sample collection: at each time point, a 0.03 mL blood sample was collected from the saphenous vein of the test animal by puncture, and the actual blood collection time was recorded. All blood samples were added into commercial EDTA-K2 anticoagulation tubes with a specification of 1.5 mL (the supplier was Jiangsu KANGJIAN Medical Apparatus Co., Ltd.). Within half an hour after the blood sample was collected, the blood sample was centrifuged at 3000 g at 4° C. for 10 minutes, and the supernatant plasma was drawn, quickly placed in dry ice, and stored in a refrigerator at −80° C. for LC-MS/MS analysis.
Data analysis: Plasma concentrations were processed using a non-compartmental model of WinNonlin™ Version6.3 (Pharsight, MountainView, Calif.) pharmacokinetic software, and pharmacokinetic parameters Cmax, Tmax, T1/2, and AUC0-last were calculated using a linear log trapezoid method.

For another series, the target named is HER1 (ErbB1) (Homo sapiens, UniProt P00533). Kind of series: in vitro enzyme activity, HER1 (ErbB1). The series is classed as biochemical. The following applies: human ErbB1, [γ-33P]ATP, poly(Glu, Tyr) substrate. The method, then: (§1) The purpose of this assay is to detect the in vitro inhibitory activity of compounds on HER1 (ErbB1), HER2 (ErbB2), and HER4 (ErbB4). The enzymes used in this assay are human ErbB1, ErbB2 and ErbB4. Eurofins Pharma Discovery Service provided the method for activity detection.
(§2) Steps and Method of the Assay (96-Well Plate):
(§3) A buffer solution of the test compounds in a dilution of 5-fold (5 μL), polypeptide substrate poly(Glu, Tyr) (4:1) (2.5 μL), ErbB (4-20 ng, 2.5 μL), MnCl2 (50 mM, 1.25 μL), dH2O (3.75 μL), and [γ-^33P]ATP (10 μL) were added, and incubated at 30° C. for 10 minutes. The reaction was terminated by adding 3% phosphoric acid. 10 μL of the sample was taken and transferred to Filtermate A. The filter disc was washed 3 times with 75 mM phosphoric acid and once with methanol. The filter disc was transferred to a sealed plastic bag and the scintillation mixture (4 mL) was added. The intensity of the emitted photon was detected by a scintillation luminescence counter. The CPM (times/min) of the enzyme sample was compared with the CPM of the internal control sample. The level of photon intensity reflected the degree of the tyrosine kinase activity.

In another series the target is HER2 (ErbB2) (Homo sapiens, UniProt P04626). Kind of series: in vitro enzyme activity, HER2 (ErbB2). In kind it is biochemical. The following applies: human ErbB2, [γ-33P]ATP, poly(Glu, Tyr) substrate. The method, then:
as §1, §2, §3

The next series deals with HER4 (ErbB4) (Homo sapiens, UniProt Q15303). Kind of series: in vitro enzyme activity, HER4 (ErbB4). In kind it is biochemical. The following applies: human ErbB4, [γ-33P]ATP, poly(Glu, Tyr) substrate. The method, then:
as §1, §2, §3

For a further series, the system named is BT-474 cell. Kind of series: inhibitory activity on cell proliferation (Cell-Titer-Glo), BT-474. The series is classed as cell-based. The following applies: Homo sapiens. The text has this:
(§4) Purpose of the assay: to detect the inhibitory activity of the test compounds on cell proliferation.
(§5) Principle of the assay: the luciferase in a Cell-Titer-Glo reagent produces oxidized luciferin with luciferin, oxygen and ATP as reaction substrates, and releases energy in the form of light. Since the luciferase reaction requires ATP, the total amount of light generated by the reaction is proportional to the total amount of ATP that reflects cell viability.
(§6) Cell Titer-Glo cell viability assay kit with luminescence (Promega #G7573)
(§7) According to the schematic diagram of the cell seed plate, cells were seeded in a 384- or 96-well plate at a density of 1000 cells per well and 25 μL per well, and 25 μL of PBS was added to the wells near edge of the place where no cells were seeded.
(§8) (1) The stock solution of the compounds has a concentration of 10 mM, and the compounds were diluted with DMSO to an initial concentration of 4 mM. The compounds were added to the plate with stock solution of compounds, 9 μL per well.
(§9) (2) The compounds were diluted with an ECHO liquid workstation, where 125 nL of compounds were added to each well of the cell plate, 125 nL of DMSO was added to each of the cell well in columns 2 and 23, and 125 nL of DMSO was added to each PBS well in columns 1 and 24.
(§10) 2.3 After addition of the compounds, the cell plate was centrifuged at 1000 rpm for 1 min, and then placed in a 37° C., 5% CO2 incubator for incubation for 3 days.
(§11) The cell plate was taken out from the incubator and equilibrated at room temperature for 30 minutes. 25 μL of Cell-Titer-Glo reagent was added to each well, shaken for one minute to allow well mixed, and centrifuged at 1000 rpm for 1 minute. After 10 minutes, the plate was read on PerkinElmer Envision, and the […] reading time was set to 0.2 second.

The next series has as its system NCI-N87 cell. Nature of the series: inhibitory activity on cell proliferation (Cell-Titer-Glo), NCI-N87. In kind it is cell-based. The following applies: Homo sapiens.
Source text: as §4, §5, §6, §7, §8, §9, §10, §11

In the next series the test system is OE21 cell. Nature of the series: inhibitory activity on cell proliferation (Cell-Titer-Glo), OE21. The series is classed as cell-based. The following applies: Homo sapiens, OE21, 72 h, incubation for 3 days.
Source text: as §4, §5, §6, §7, §8, §9, §10, §11

For the next series, the system named is OE19 cells. Nature of the series: CTG assay of OE19 cells. In kind it is cell-based. The following applies: Homo sapiens, 72 hours of cell culture, Cell Titer Glo. The method, then:
OE19 cells with saturation of 80%-90% were digested with trypsin, centrifuged, resuspended and counted. The concentration of cells was adjusted to […]. OE19 cells were added to a 96-well cell culture plate to 8000 OE19 cells per well. The cells were cultured in a cell incubator containing 5% CO2 at 37° C. overnight.
The stock solution of the test compounds was serially 3-fold diluted with DMSO to a total of 10 concentrations. Before the start of the assay, the serially diluted test compounds were further diluted to 10× compound solutions (the compound with a highest concentration contains 1% DMSO) with cell culture medium under sterile conditions. The prepared 10× compound solutions were added to the cell culture plate, and the 10 μL compound solution was added to each well. In this way, the final concentrations of staurosporine as the standard control and all the test compounds were obtained starting from […] as the initial concentration in a 3-fold serial dilution to get 10 test concentrations.
After 72 hours of cell culture, the 96-well cell culture plate was taken out. Cell Titer Glo reagent was added at […], mixed, centrifuged, and incubated at room temperature in the dark for 10 minutes. The cell plate was placed in Envision for reading.
The inhibition rate was calculated according to original data as follows:
Inhibition %=(ZPE−sample detection value)/(ZPE−HPE)×100%
The well containing 10 mM staurosporine on DAY3 (the first day of the assay is the day when compounds were added, and DAY3 is the day when reading is perfomed) was used as the HPE (100% inhibition control) well, and the well containing 0.1% DMSO on DAY3 was used as the ZPE (0% inhibition control) well. Each concentration of test compounds was tested in duplicate.
Non-linear regression analysis was performed using the processed data and GraphPad Prism 6 analysis software to obtain a dose-response curve, and the half-inhibitory concentration (IC50) of the test compounds on OE19 cells was calculated.

Where [3] appears, read: BT-474, footnote d: initial dilution concentration of compounds is 10 μM.
[4] abbreviates: NCI-N87, footnote d: initial dilution concentration of compounds is 10 μM.
Setting [5] is: NCI-N87, 72 h, incubation for 3 days, Cell-Titer-Glo.

pIC50: −log10 of the molar value.

Chain of HER2 (ErbB2) (P04626 23-1255): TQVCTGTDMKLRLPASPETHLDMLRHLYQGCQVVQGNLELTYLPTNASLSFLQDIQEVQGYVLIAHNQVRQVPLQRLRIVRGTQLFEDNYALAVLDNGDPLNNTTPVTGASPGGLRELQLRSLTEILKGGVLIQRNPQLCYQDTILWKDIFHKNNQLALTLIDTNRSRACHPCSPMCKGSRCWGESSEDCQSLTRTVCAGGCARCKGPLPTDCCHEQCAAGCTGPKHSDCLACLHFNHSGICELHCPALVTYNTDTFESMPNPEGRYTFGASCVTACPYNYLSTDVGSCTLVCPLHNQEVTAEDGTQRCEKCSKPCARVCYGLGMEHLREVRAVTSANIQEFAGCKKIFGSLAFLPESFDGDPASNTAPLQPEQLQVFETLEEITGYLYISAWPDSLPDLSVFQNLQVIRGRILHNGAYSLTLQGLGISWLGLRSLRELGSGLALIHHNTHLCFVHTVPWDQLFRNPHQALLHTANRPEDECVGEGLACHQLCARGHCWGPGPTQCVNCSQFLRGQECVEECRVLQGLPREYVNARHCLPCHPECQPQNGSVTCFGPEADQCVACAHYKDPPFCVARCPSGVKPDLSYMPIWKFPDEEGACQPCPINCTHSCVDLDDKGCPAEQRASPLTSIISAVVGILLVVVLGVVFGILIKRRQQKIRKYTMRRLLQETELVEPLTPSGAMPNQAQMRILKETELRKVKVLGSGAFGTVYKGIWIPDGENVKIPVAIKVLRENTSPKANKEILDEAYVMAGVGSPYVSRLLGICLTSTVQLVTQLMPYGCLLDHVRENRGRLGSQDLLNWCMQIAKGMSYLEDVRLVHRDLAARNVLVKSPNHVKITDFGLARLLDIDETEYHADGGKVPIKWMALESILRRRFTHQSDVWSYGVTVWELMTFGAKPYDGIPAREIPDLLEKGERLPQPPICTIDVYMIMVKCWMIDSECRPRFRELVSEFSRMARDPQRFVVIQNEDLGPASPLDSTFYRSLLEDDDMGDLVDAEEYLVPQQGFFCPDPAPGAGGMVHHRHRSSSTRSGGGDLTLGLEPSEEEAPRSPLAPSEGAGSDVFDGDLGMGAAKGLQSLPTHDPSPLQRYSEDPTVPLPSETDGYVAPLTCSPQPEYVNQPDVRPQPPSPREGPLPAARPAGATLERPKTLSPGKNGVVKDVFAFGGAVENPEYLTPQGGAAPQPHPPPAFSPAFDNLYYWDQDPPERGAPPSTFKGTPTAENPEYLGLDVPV
Chain of HER1 (ErbB1) (P00533 25-1210): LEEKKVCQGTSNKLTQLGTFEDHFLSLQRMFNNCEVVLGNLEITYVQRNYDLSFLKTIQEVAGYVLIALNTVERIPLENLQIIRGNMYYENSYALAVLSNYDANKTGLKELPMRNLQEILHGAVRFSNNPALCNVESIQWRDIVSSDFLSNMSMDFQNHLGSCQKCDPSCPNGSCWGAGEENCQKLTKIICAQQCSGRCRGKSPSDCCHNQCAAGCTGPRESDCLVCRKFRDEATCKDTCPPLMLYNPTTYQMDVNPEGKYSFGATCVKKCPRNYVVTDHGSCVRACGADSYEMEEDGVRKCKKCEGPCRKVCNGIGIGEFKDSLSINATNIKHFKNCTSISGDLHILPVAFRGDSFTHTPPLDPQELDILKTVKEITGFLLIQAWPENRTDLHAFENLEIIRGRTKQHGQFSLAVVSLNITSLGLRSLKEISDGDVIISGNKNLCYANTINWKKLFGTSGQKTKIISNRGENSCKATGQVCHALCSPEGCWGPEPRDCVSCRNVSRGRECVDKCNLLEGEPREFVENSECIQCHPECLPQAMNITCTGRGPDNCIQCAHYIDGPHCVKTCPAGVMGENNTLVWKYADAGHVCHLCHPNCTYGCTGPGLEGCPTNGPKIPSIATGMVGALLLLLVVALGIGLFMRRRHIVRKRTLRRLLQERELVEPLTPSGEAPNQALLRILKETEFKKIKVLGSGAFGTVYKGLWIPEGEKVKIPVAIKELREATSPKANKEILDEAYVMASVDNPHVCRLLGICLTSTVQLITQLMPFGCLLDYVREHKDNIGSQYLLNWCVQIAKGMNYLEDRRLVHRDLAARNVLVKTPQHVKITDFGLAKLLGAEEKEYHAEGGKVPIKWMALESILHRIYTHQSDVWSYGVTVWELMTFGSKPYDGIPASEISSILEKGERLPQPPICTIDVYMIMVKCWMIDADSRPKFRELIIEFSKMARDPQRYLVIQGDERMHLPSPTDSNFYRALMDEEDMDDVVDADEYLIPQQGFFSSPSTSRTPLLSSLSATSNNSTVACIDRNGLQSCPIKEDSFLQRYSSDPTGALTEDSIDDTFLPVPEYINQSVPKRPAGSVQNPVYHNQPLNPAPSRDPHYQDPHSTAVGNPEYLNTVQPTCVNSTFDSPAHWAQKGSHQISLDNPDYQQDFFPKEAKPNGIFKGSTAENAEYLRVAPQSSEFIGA
Chain of HER4 (ErbB4) (Q15303 26-1308): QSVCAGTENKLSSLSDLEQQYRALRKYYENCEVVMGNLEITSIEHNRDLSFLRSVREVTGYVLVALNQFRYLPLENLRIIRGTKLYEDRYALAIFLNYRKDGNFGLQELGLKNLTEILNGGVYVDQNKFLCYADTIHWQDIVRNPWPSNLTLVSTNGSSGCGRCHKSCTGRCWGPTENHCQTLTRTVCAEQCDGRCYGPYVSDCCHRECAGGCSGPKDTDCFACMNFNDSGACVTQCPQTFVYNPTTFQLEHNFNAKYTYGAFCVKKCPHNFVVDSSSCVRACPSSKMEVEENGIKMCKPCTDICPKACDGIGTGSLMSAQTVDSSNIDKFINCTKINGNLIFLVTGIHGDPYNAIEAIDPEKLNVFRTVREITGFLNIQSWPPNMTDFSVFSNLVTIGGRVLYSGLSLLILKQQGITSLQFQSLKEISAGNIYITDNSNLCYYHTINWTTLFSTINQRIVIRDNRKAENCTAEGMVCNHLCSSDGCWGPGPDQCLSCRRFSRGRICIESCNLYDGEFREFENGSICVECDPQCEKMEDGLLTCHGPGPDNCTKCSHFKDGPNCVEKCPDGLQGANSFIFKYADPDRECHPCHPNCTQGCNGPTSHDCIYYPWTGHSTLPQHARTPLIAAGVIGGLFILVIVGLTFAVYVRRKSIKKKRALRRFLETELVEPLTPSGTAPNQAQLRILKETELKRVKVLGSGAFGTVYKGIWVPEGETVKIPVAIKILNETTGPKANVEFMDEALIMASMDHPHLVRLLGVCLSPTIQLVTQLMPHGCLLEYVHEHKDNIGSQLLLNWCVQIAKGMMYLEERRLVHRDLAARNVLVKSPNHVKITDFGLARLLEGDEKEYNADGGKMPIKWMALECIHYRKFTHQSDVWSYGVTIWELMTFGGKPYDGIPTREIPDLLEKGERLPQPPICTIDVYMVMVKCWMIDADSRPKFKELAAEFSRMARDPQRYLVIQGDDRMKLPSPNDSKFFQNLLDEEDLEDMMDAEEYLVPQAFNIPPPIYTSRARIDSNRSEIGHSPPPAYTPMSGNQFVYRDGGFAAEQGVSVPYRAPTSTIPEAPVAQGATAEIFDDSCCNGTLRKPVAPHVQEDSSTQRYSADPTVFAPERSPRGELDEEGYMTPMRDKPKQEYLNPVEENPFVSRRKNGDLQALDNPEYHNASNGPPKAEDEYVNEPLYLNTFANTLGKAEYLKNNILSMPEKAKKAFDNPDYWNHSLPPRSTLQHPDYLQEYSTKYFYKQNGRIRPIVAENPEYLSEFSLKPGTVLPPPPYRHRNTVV

In the case of `C=CC(=O)N1CCC(Nc2cc3c(Nc4ccc(F)c(Cl)c4)ncnc3cc2OC)CC1` [Control compound 2], the “Tumor volume (mm^3) (Day 21)” value in series [1] (NCI-N87 xenograft, Mean + SEM) is given as 541 ± 88 mm^3. Also, in series [1] (day 21), the “T/C (%)” value worked out at 89.35% and the “TGI (%)” value was 18.83%. Further, in [2] (oral), the Tmax worked out at 2 h and the half-life was 1.5 h. In [2] (oral plasma exposure), this compound showed an AUC(0-t) of 82 µM·h and a Cmax of 15.3 µM.

For the compound `C=CC(=O)N1C[C@H]2C[C@@H](C1)[C@H]2Nc1cc2c(Nc3ccc(Cl)c(Cl)c3F)ncnc2cc1OC` [Example 9], the pIC50 on HER1 (ErbB1) is 8.05; against HER2 (ErbB2), 7.89; at HER4 (ErbB4), 8.10; in the series on BT-474 cell (setting [3]), 8.68; in the series on NCI-N87 cell (setting [4]), 9.05.

On to `C=CC(=O)N1C[C@H]2C[C@@H](C1)[C@H]2Oc1cc2c(Nc3ccc(Cl)c(Cl)c3F)ncnc2cc1OCCO` [Example 13], for which the pIC50 against HER1 (ErbB1) was 8.30; against HER2 (ErbB2), 8.10; on HER4 (ErbB4), 8.15; with BT-474 cell (setting [3]), 8.70; in the series with NCI-N87 cell (setting [4]), 8.80.

As to `C=CC(=O)N1C[C@H]2C[C@@H](C1)[C@H]2Oc1cc2c(Nc3ccc(Cl)c(Cl)c3F)ncnc2cc1OCCCN1CCOCC1` [Example 18], the pIC50 at HER1 (ErbB1) is 8.05; on HER2 (ErbB2), 7.92; on HER4 (ErbB4), 8.30; in the series on BT-474 cell (setting [3]), 8.62; in the series with NCI-N87 cell (setting [4]), 8.89.

In the case of `C=CC(=O)N1[C@@H]2CC[C@H]1C[C@H](Oc1cc3c(Nc4ccc(Cl)c(Cl)c4F)ncnc3cc1OCC)C2` [Example 21], the pIC50 is 7.92 against HER1 (ErbB1); 8.30 against HER2 (ErbB2); 8.52 at HER4 (ErbB4); 9.34 with BT-474 cell (BT-474, 72 h, incubation for 3 days, Cell-Titer-Glo); 9.46 in the series on NCI-N87 cell (setting [5]).

With `C=CC(=O)N1[C@@H]2CC[C@H]1C[C@H](Oc1cc3c(Nc4ccc(F)c(Cl)c4F)ncnc3cc1OC)C2` [Example 34], the pIC50 on HER1 (ErbB1) is 8.30; on HER2 (ErbB2), 8.40; against HER4 (ErbB4), 8.70; in the series on NCI-N87 cell (setting [5]), 9.38; in the series on OE21 cell, 9.57; with OE19 cells it was 12.00.

Take `C=CC(=O)N1[C@@H]2CC[C@H]1C[C@H](Nc1cc3c(Nc4ccc(F)c(Cl)c4F)ncnc3cc1OC)C2` [Example 48]: the pIC50 against HER1 (ErbB1) was 8.05; against HER2 (ErbB2), 7.96; at HER4 (ErbB4) it was 8.40; in the series on OE21 cell it was 9.77; in the series on OE19 cells it was 9.62.

A word on the Tmax: it is the time from dosing to the highest level. A word on the half-life: it is how long it takes for the measured level to halve. Higher therefore signals slow decline. The AUC(0-t) is the area under the concentration-time curve up to a stated or last time point. Read a high AUC(0-t) as more exposure. Broadly, the Cmax is the peak of the concentration-time curve. What is called pIC50 is the IC50 on a negative log10 scale, so that one unit is a factor of ten. A low value points to a large IC50.
